Laboratory results as given in ChEMBL document CHEMBL1136730, “Antiestrogens and selective estrogen receptor modulators as multifunctional medicines. 2. Clinical considerations and new agents” (J Med Chem, 2003).
Blank lines part the entries; values can stand above or below the molecule they belong to. Calls of active or inactive are those of the source. The calls are words filed in the database; no cut-off is given here.

How the values were obtained:
Estrogen receptor = biological target: T1, Estrogen receptor (Homo sapiens, UniProt P03372); assay: Binding affinity for Estrogen receptor alpha
T1 sequence (P03372 whole entry): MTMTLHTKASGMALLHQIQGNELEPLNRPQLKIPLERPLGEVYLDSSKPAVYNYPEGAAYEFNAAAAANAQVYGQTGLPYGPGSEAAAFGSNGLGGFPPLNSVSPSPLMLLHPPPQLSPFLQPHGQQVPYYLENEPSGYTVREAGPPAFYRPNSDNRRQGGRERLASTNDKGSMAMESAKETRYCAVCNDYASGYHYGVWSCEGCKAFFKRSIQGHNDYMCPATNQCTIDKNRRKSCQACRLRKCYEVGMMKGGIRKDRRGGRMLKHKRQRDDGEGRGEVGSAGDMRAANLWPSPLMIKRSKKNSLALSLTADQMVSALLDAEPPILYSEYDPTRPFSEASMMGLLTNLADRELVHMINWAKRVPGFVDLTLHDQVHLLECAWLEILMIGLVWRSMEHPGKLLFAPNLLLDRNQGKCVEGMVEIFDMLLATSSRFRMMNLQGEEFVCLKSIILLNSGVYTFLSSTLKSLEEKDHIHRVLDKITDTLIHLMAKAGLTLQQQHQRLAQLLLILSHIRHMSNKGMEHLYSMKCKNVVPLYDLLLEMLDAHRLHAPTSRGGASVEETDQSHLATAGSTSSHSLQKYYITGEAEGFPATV

Rattus norvegicus = assay: Effect on stimulation of immature rat uterus in dose limit of 0.1 and 10 mg/kg; No effect but lowers circulating cholesterol; type: functional, organism-based; set-up: dose 10 mg/kg
[1] = Effect on bone density of totalhip was determined in postmenopausal women; type: functional, Homo sapiens, Bone element
Homo sapiens [2] = species: Homo sapiens; assay: Effect on spine fractures in postmenopausal women with osteoporosis; type: functional
Homo sapiens [3] = species: Homo sapiens; assay: Effect on bone density in the lumber spine was determined in postmenopausal women; type: functional

SMILES: Oc1ccc2c(c1)CN(c1ccc(OCCN3CCCCC3)cc1)c1c-2ccc2cc(O)ccc12
- Ki (Estrogen receptor): 0.28 nM
- Effect (Rattus norvegicus): inactive

- bioavailability (in vivo): 2%
SMILES: O=C(c1ccc(OCCN2CCCCC2)cc1)c1c(-c2ccc(O)cc2)sc2cc(O)ccc12 [RALOXIFENE]
- Increase [1]: 2.4%
- Decrease (Homo sapiens [2]): 40%
- Increase (Homo sapiens [3]): 2.4%
